Among the test systems are BT-549 breast; DU-145 prostate; HCT-15 colon; HL-60(TB) leukemia; HT29 colon; MDA-MB-435; U251 CNS.
Holding throughout (assay): growth of human tumour cells (NCI), 48 h

“And” between values parts separate entries of the source, which are not always exact repeats. Equal entries are not always repeated.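 48-hour exposure; five concentrations; linearly interpolated endpoints. Abbreviation: GI50, concentration required for 50% inhibition of growth. TGI marks complete inhibition of growth.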

As to `COC(=O)[C@]12CC[C@@H](C)[C@H](C)[C@@H]1C1=CC[C@@H]3[C@@]4(C)C(C=O)=C[C@@](C)(COC(=O)c5ccco5)C4=CC[C@@]3(C)[C@]1(C)CC2`, the GI50 in the experiment with BT-549 breast is 4.93 µM; in the experiment on DU-145 prostate, 3.81 µM; in the experiment with HCT-15 colon it was 1.91 µM; in the experiment on HL-60(TB) leukemia it was 2.85 µM; in the experiment with HT29 colon, 2.98 µM; in the experiment on MDA-MB-435, 0.0663 µM. In the experiment on U251 CNS, the GI50 is 2.06 µM. The TGI with BT-549 breast was 32.4 µM; in the experiment with DU-145 prostate, 15.9 µM; with HCT-15 colon it was 4.09 µM; with HL-60(TB) leukemia, 5.72 µM; in the experiment on HT29 colon, 9.47 µM; in the experiment on MDA-MB-435, 2.96 µM. In addition, in the experiment on U251 CNS, the TGI was 10.8 µM.
With `Fc1cccc(-c2nc(-c3c[nH]c4ncccc34)cs2)c1`, the GI50 is 44.8 µM in the experiment with BT-549 breast; above 100 µM with DU-145 prostate; above 100 µM in the experiment on HCT-15 colon; above 100 µM in the experiment on HL-60(TB) leukemia; above 100 µM with HT29 colon; above 100 µM in the experiment on MDA-MB-435. For the same compound, in the experiment with U251 CNS, the GI50 is 25 µM. Further, the TGI in the experiment with BT-549 breast, in the experiment with DU-145 prostate, with HCT-15 colon, in the experiment with HL-60(TB) leukemia, in the experiment with HT29 colon and with MDA-MB-435 was above 100 µM throughout. Further, the TGI in the experiment on U251 CNS was above 100 µM.
For `CC(NNC(=S)N1CCN(c2ccccn2)CC1)c1cccc[n+]1[O-]` (stereo unspecified), the TGI is above 100 µM in the experiment with BT-549 breast; above 100 µM with DU-145 prostate; above 100 µM with HCT-15 colon; 16.7 µM in the experiment with HL-60(TB) leukemia; above 100 µM with HT29 colon; above 100 µM in the experiment on MDA-MB-435. For the same compound, the TGI in the experiment with U251 CNS was above 100 µM.
For the compound `COc1ccccc1CNC(=O)/C=C/c1ccc(O)c(O)c1`, the GI50 was 40.2 µM with BT-549 breast; 82.4 µM in the experiment with DU-145 prostate; 15.6 µM in the experiment with HCT-15 colon; 45.2 µM with HL-60(TB) leukemia; 50.5 µM in the experiment on HT29 colon; 58.3 µM in the experiment with MDA-MB-435. For the same compound, the GI50 with U251 CNS is 42 µM. The TGI in the experiment with BT-549 breast was above 100 µM; in the experiment with DU-145 prostate it was above 100 µM; with HCT-15 colon, 86.3 µM; in the experiment on HL-60(TB) leukemia it was above 100 µM; with HT29 colon, above 100 µM; with MDA-MB-435, above 100 µM. In the experiment on U251 CNS, this compound gave a TGI above 100 µM.
As to `CCN1Cc2c(/C=C/c3ccccc3)nc3ccc(OC)cc3c2N(c2cccc(Cl)c2)C1`, the GI50 in the experiment with BT-549 breast was 5.73 µM; with DU-145 prostate, 1.94 µM; in the experiment with HCT-15 colon, 1.74 µM; in the experiment on HL-60(TB) leukemia it was 2.08 µM; in the experiment on HT29 colon, 1.45 µM; in the experiment on MDA-MB-435 it was 1.81 µM. In addition, the GI50 in the experiment with U251 CNS is 1.71 µM. Moreover, the TGI is 23 µM with BT-549 breast; 3.47 µM in the experiment with DU-145 prostate; 3.63 µM with HCT-15 colon; 5.66 µM in the experiment on HL-60(TB) leukemia; 3.03 µM in the experiment with HT29 colon; 3.7 µM in the experiment with MDA-MB-435. In the experiment with U251 CNS, this compound registered a TGI of 3.3 µM.
Take `COc1cc(-c2cn(-c3ccc(F)cc3)c(=O)[nH]2)cc(OC)c1OC`: the GI50 in the experiment with BT-549 breast, in the experiment with DU-145 prostate, in the experiment with HCT-15 colon, with HL-60(TB) leukemia, in the experiment on HT29 colon and in the experiment with MDA-MB-435 was above 100 µM each time. Further, the GI50 in the experiment on U251 CNS is above 100 µM. The TGI in the experiment with BT-549 breast, in the experiment on DU-145 prostate, in the experiment on HCT-15 colon, in the experiment with HL-60(TB) leukemia, in the experiment with HT29 colon and with MDA-MB-435 was above 100 µM throughout. In addition, the TGI in the experiment with U251 CNS was above 100 µM.
With `COc1ccc(-n2nc(C(=O)NCC(=O)Nc3nc4cc(OC)ccc4s3)c3ccccc3c2=O)cc1`, the GI50 with BT-549 breast is 3.04 µM; in the experiment on DU-145 prostate it was 0.919 µM; in the experiment on HCT-15 colon, above 24 µM; with HL-60(TB) leukemia, above 100 µM; in the experiment on HT29 colon, 0.441 µM; with MDA-MB-435, 0.641 µM. For the same compound, the GI50 with U251 CNS is 0.448 µM. The TGI is 25.9 µM in the experiment with BT-549 breast; above 100 µM in the experiment on HCT-15 colon; above 100 µM in the experiment with HL-60(TB) leukemia; 1.78 µM in the experiment with HT29 colon; 14.3 µM in the experiment on MDA-MB-435; 1.73 µM in the experiment with U251 CNS.
Consider `O=C(O)c1ccccc1C(=O)Nc1cc2c(cc1Br)-c1ccccc1C2=O`, for which the TGI in the experiment with BT-549 breast, with DU-145 prostate, with HCT-15 colon, with HL-60(TB) leukemia, in the experiment with HT29 colon and in the experiment with MDA-MB-435 was above 100 µM in each case. This compound also displayed a TGI in the experiment on U251 CNS above 100 µM.
With `Cn1c(=O)c2[nH]c(CCS)nc2n(C)c1=O`, the TGI in the experiment on BT-549 breast, in the experiment on DU-145 prostate, in the experiment with HCT-15 colon, in the experiment with HL-60(TB) leukemia, in the experiment on HT29 colon and with MDA-MB-435 was above 100 µM each time. In the experiment with U251 CNS, this compound gave a TGI above 100 µM.
Regarding `C#CCn1c2c(c3ccccc3c1=O)C(=O)c1ccccc1-2`, the TGI in the experiment with BT-549 breast was above 100 µM; in the experiment with DU-145 prostate, 44.4 µM; with HCT-15 colon, above 100 µM; with HL-60(TB) leukemia, 10.2 µM; in the experiment on HT29 colon, 65.9 µM; in the experiment on MDA-MB-435, above 100 µM. Moreover, the TGI with U251 CNS came out at 42.5 µM.
With `O=C(Oc1c(Cl)c(Cl)c(Cl)c(Cl)c1Cl)C1CCCN1C(=O)OCc1ccccc1` (stereo unspecified), the GI50 in the experiment with BT-549 breast is 3.75 µM; with DU-145 prostate, 4.49 µM; in the experiment with HCT-15 colon, 3.08 µM; with HL-60(TB) leukemia, 2.42 µM; in the experiment with HT29 colon, 3.71 µM; in the experiment on MDA-MB-435, 4.11 µM. The GI50 in the experiment on U251 CNS was 3.34 µM. Besides, the TGI in the experiment with BT-549 breast stood at 13.1 µM; with DU-145 prostate, 20 µM; in the experiment with HCT-15 colon it was 11.7 µM; in the experiment on HL-60(TB) leukemia it was 6.09 µM; with HT29 colon, 12 µM; in the experiment with MDA-MB-435 it was 16.6 µM. In the experiment on U251 CNS, this compound registered a TGI of 12.6 µM.
In the case of `O=C(Cc1ccc(-c2ccc(OCCN3CCOCC3)cc2)cn1)NCc1ccccc1`, the GI50 in the experiment on BT-549 breast is 0.159 µM and 0.0767 µM; in the experiment with DU-145 prostate it was 0.0324 µM and 0.0387 µM; in the experiment on HCT-15 colon it was 0.0294 µM and 0.0387 µM; in the experiment with HL-60(TB) leukemia, 0.0294 µM and 0.0309 µM; in the experiment with HT29 colon it was 0.0343 µM and 0.0342 µM; in the experiment on MDA-MB-435, 0.0162 µM. Also, in the experiment with U251 CNS, the GI50 is 0.0417 µM and 0.0377 µM. The TGI is above 100 µM in the experiment with HCT-15 colon, above 37.6 µM in the experiment with HT29 colon, 0.0392 µM in the experiment on MDA-MB-435 and above 100 µM with U251 CNS.

Values taken from PubChem BioAssay (NCI).
